Among the test systems are U-251; HT-29; MDA-MB-231; RPMI-8226; TK-10; SNB-75; IGROV-1; UO-31; Hs-578T; K562; SR; PC-3; UACC-62; HL-60; HOP-62; HCT-116; NCI-H522; SK-MEL-2; SW-620; A498.
Common to all, as to test: growth of human tumour cells (NCI), 48 h

The structures appear in SMILES notation.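 Test compounds were applied to cells in 96-well plates for 48 hours at 5 doses. Abbreviation: GI50, concentration required for 50% inhibition of growth.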 The source made the active and inactive calls. No stated cut-off is given here; in the data, active = GI50 up to about 1.1 µM and inactive = higher.

As to `O=c1[nH]c(=O)n(C2CC(O)C(CO)O2)cc1Oc1ccccc1` (configuration not stated), the GI50 with U-251, with HT-29, in the experiment on MDA-MB-231, in the experiment with RPMI-8226, in the experiment on TK-10 and in the experiment with SNB-75 was > 100 µM (inactive) each time. Also, the GI50 in the experiment on IGROV-1, in the experiment on UO-31, in the experiment on Hs-578T, in the experiment with K562, in the experiment on SR and in the experiment on PC-3 was > 100 µM (inactive) in each case. In addition, the GI50 in the experiment with UACC-62, in the experiment with HL-60, in the experiment on HOP-62, in the experiment on HCT-116 and with NCI-H522 was > 100 µM (inactive) in each case.
Turning to `CCCCNc1nc(O)c2[nH]cnc2n1`, the GI50 with U-251, in the experiment with SK-MEL-2, in the experiment on HT-29, with SW-620, with A498 and with MDA-MB-231 was > 100 µM (inactive) throughout. The GI50 in the experiment with RPMI-8226, in the experiment on TK-10, with SNB-75, with IGROV-1, in the experiment on UO-31 and with Hs-578T was > 100 µM (inactive) each time. Moreover, the GI50 was > 100 µM (inactive) in the experiment with K562; > 100 µM (inactive) in the experiment with PC-3; > 100 µM (inactive) in the experiment with UACC-62; > 100 µM (inactive) in the experiment on HOP-62; > 100 µM (inactive) in the experiment on HCT-116; 51.8 µM (inactive) with NCI-H522.
For the molecule `N=C(N)c1ccc(C(NC(=O)CNS(=O)(=O)c2ccc3ccccc3c2)P(=O)(Oc2ccccc2)Oc2ccccc2)cc1` (configuration not stated), the GI50 with U-251 was 39.4 µM (inactive); in the experiment with SK-MEL-2, > 100 µM (inactive); in the experiment with HT-29, 98.6 µM (inactive); in the experiment on SW-620 it was 53.2 µM (inactive); in the experiment with MDA-MB-231, 41.2 µM (inactive); with RPMI-8226, 46.3 µM (inactive). Further, the GI50 in the experiment with SNB-75 is 27 µM (inactive); in the experiment on IGROV-1, 31.8 µM (inactive); in the experiment on UO-31 it was 40.3 µM (inactive); in the experiment with Hs-578T it was 35.2 µM (inactive); in the experiment with K562, 50 µM (inactive); with SR, 29.4 µM (inactive). For the same molecule, the GI50 was 37.8 µM (inactive) in the experiment on PC-3; 44.1 µM (inactive) with UACC-62; 14.2 µM (inactive) in the experiment on HL-60; 51.9 µM (inactive) in the experiment with HOP-62; 37.8 µM (inactive) with HCT-116; 41.2 µM (inactive) in the experiment with NCI-H522.
Consider `C=C(Cl)CN1c2ccccc2C=Cc2ccccc21`, for which the GI50 in the experiment with U-251 is 10.1 µM (inactive); with SK-MEL-2, 18.7 µM (inactive); in the experiment with HT-29 it was 9.44 µM (inactive); with A498, 34.7 µM (inactive); in the experiment with MDA-MB-231, 14.7 µM (inactive); with TK-10 it was 48.3 µM (inactive). In addition, the GI50 in the experiment with SNB-75 is 24.7 µM (inactive); with IGROV-1, 16.1 µM (inactive); with UO-31, 31.6 µM (inactive); in the experiment on Hs-578T, 53.3 µM (inactive); with PC-3, 9.12 µM (inactive); in the experiment with UACC-62, 10.1 µM (inactive). In addition, the GI50 in the experiment on HOP-62 is 16.6 µM (inactive); in the experiment with HCT-116, 5.01 µM (inactive); in the experiment with NCI-H522, 21.6 µM (inactive).
In the case of `CCOC(=O)c1nc2ccc(C(F)(F)F)cc2nc1Nc1ccc(F)cc1`, the GI50 with SK-MEL-2 was > 100 µM (inactive); with HT-29, > 100 µM (inactive); in the experiment on SW-620, > 100 µM (inactive); with A498, > 100 µM (inactive); with MDA-MB-231, > 10 µM (inactive); in the experiment with TK-10, 92.3 µM (inactive). In addition, the GI50 with SNB-75 was 32.1 µM (inactive); with IGROV-1, 87.7 µM (inactive); with UO-31 it was 49.5 µM (inactive); in the experiment with Hs-578T, 21.9 µM (inactive); in the experiment on K562, > 100 µM (inactive); in the experiment on PC-3, > 100 µM (inactive). Besides, the GI50 in the experiment on UACC-62 is > 100 µM (inactive); with HL-60, > 100 µM (inactive); in the experiment on HOP-62 it was 58.9 µM (inactive); in the experiment on HCT-116, > 100 µM (inactive); with NCI-H522 it was 54.6 µM (inactive).
Take `O=C(O)c1nn[nH]c1Cl`: the GI50 in the experiment on U-251, with SK-MEL-2, with HT-29, in the experiment on SW-620, in the experiment on A498 and in the experiment with MDA-MB-231 was > 100 µM (inactive) each time. Further, the GI50 in the experiment on RPMI-8226, with TK-10, in the experiment with SNB-75, in the experiment on IGROV-1, in the experiment with UO-31 and in the experiment on Hs-578T was > 100 µM (inactive) in each case. Besides, the GI50 with K562, in the experiment on PC-3, in the experiment with UACC-62, in the experiment with HL-60, in the experiment on HOP-62 and with HCT-116 was > 100 µM (inactive) in each case. Besides, the GI50 in the experiment with NCI-H522 is > 100 µM (inactive).
In the case of `Cn1c(=O)c2[nH]c(N=O)nc2n(C)c1=O`, the GI50 in the experiment on U-251, with SK-MEL-2, with HT-29, in the experiment with SW-620, with A498 and in the experiment with MDA-MB-231 was > 100 µM (inactive) throughout. Moreover, the GI50 with RPMI-8226, with TK-10, in the experiment on SNB-75, in the experiment on IGROV-1, in the experiment on UO-31 and in the experiment with Hs-578T was > 100 µM (inactive) throughout. Besides, the GI50 in the experiment with K562, in the experiment on PC-3, in the experiment with UACC-62, with HL-60, in the experiment with HOP-62 and in the experiment on HCT-116 was > 100 µM (inactive) throughout. Further, the GI50 in the experiment on NCI-H522 is > 100 µM (inactive).
As to `CC[C@H](C)[C@H]1NC(=O)[C@@H](NC(=O)[C@@H](CC(C)C)N(C)C(=O)C2CCCN2C(=O)[C@H](C)O)[C@@H](C)OC(=O)[C@H](Cc2ccccc2)N(C)C(=O)[C@@H]2CCCN2C(=O)[C@H](CC(C)C)NC(=O)[C@@H](C)C(=O)[C@H](C(C)C)OC(=O)C[C@@H]1O` (some centres not stated), the GI50 in the experiment with U-251, in the experiment with SK-MEL-2, in the experiment with HT-29, with SW-620, with A498 and in the experiment on MDA-MB-231 was < 0.00625 µM (active) in each case. The GI50 in the experiment on RPMI-8226, with TK-10, in the experiment with SNB-75, with IGROV-1, with UO-31 and in the experiment with Hs-578T was < 0.00625 µM (active) in each case. The GI50 is < 0.00625 µM (active) with K562; < 0.00625 µM (active) in the experiment on PC-3; < 0.00625 µM (active) in the experiment on UACC-62; 0.122 µM (active) in the experiment on HL-60; < 0.00625 µM (active) with HOP-62; < 0.00625 µM (active) in the experiment on HCT-116. Moreover, the GI50 in the experiment on NCI-H522 was < 0.00625 µM (active).

These data come from ChEMBL document CHEMBL1201862, “PubChem BioAssay data set” (2004).
